Test results: US20140272067A1, “ORGANIC COMPOUNDS” (Givaudan S.A., priority 2011, published 2014)

What was measured:
Type in all cases: in vivo
[1] = Taste panel: umami and salt intensity of solution B vs reference solution A (Example 2); settings: 10 ppm compound in 0.5% NaCl and 0.03% MSG vs same solution without compound; scale -3 (much lower than base) to 3 (much higher than base); average of 4 flavourists
Method: Two solutions were prepared: • A a solution of 0.5% NaCl and 0.03% MSG • B a solution of 0.5% NaCl and 0.03% MSG and 10 ppm Example 1 compound
The samples were tasted by a small group of flavourists (2 male, 2 female, aged between 30 and 60). The intensity of the umami and salt taste of solution B was compared with that of the reference (solution A) and rated according to the following intensity scale: • Taste effect much lower than base: −3 • Taste effect lower than base: −2 • Taste effect slightly lower than base: −1 • Taste effect same as base: 0 • Taste effect slightly higher than base: 1 • Taste effect higher than base: 2 • Taste effect much higher than base: 3
The results (average of ratings given by the flavourists) were: […]

[2] = Taste panel: enhancement effect on NaCl, MSG and ribonucleotides taste (Example 3); settings: 5-10 flavourists
Method: Six solutions were prepared: • A a solution of 0.5% NaCl • B a solution of 0.5% NaCl and 0.03% MSG • C a solution of 0.5% NaCl and 0.015% ribonucleotides • D a solution of 0.5% NaCl and 50 ppm Example 1 compound • E a solution of 0.5% NaCl and 0.03% MSG and 50 ppm Example 1 compound • F a solution of 0.5% NaCl and 0.015% ribonucleotides and 50 ppm Example 1 compound
The samples were tasted by a group of 5-10 flavourists aged between 30 and 60. The taste of solution D is compared with that of A to determine the enhancement effect of Example 1 compound on NaCl. Similarly, solution E is compared with solution B and solution F with solution C to determine the enhancement effect of Example 1 compound on MSG and ribonucleotides respectively. The effect is marked between 0 and 10, the greater the value the greater the effect.

[3] = Taste panel: bouillon with compound vs reference bouillon (Example 4); settings: 200 ppm in bouillon (32 g mix in 1 L boiling water); 4 flavourists
Method: A bouillon mix was prepared from 155.0 g of sodium chloride, 157.0 g of dextrose monohydrate (ex Tapioca), 0.2 g of celery oleoresin, 0.3 g of oleoresin turmeric Vegex, 0.2 g of oleoresin coriander seed, 444.8 g maltodextrin 5-8 DE, 40.0 g vegetable oil soya bean refined, 30.0 g yeast standard light, 4.0 g of onion powder, 4.0 g of garlic powder, 0.5 g of white pepper and 164.0 g of potato starch.
32 g of the well-mixed ingredients was added to 1 L of boiling water and stirred until completely dissolved.
A small group of flavourists (2 male, 2 female) compared the taste of the reference bouillon with that of a batch of the same bouillon containing 200 ppm of N-methyl-D-aspartic acid.

Q: With `CN[C@H](CC(=O)O)C(=O)O` [N-methyl-D-aspartic acid, N-methyl-D-aspartic Acid] as the compound, how does the “Intensity Taste Salt (NaCl)” value [1] read?
A: 0.50

Q: What about the “Intensity Taste Umami” value [1] of the same compound?
A: 0.50

Q: And the “NaCl Taste” value ([2]; 50 ppm compound in 0.5% NaCl (solution D) vs solution A (reference 0.0), marked 0 to 10, the greater the value the greater the effect)?
A: 0.7

Q: And the Ribo taste ([2]; 50 ppm compound in 0.5% NaCl and 0.015% ribonucleotides (solution F) vs solution C (reference 5.0), marked 0 to 10)?
A: 6.3

Q: And the MSG taste ([2]; 50 ppm compound in 0.5% NaCl and 0.03% MSG (solution E) vs solution B (reference 5.0), marked 0 to 10)?
A: 5.3

Q: What about the “Salivating effect of test bouillon vs reference bouillon” value [3] of the same compound?
A: slightly more salivating

Q: What about the “Umami taste of test bouillon vs reference bouillon” value [3] of the same compound?
A: slightly more umami

Q: With `CNC(CCC(=O)O)C(=O)O` (racemic) [N-methyl-DL-glutamic acid, N-methyl-DL-glutamic Acid] as the compound, how does the “Intensity Taste Salt (NaCl)” value [1] read?
A: 1.00

Q: What about the “Intensity Taste Umami” value [1] of the same compound?
A: 0.00
